Read-outs that look alike come from different tables or passages of the source.
Experiments:
HTT mRNA = assay: RT-qPCR splicing assay, HTT mRNA canonical (CJ) and alternative (AJ) junction; type: cell-based, human; settings: Homo sapiens; for AC50: HTT alternative junction mRNA, read-out: HTT AJ (increase in AJ mRNA, AC50)
Outline: (§1)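 Splice switching quantified in compound-treated A673/K562 cells after 24 h exposure (top dose 10 uM, 3-fold steps, ≤0.25% DMSO), using CJ and AJ qPCR assays run at least in duplicate. RQ derived by 2^(−ΔΔCt), then percentage response.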

SMN2 mRNA = assay: RT-qPCR splicing assay, SMN2 mRNA; type: cell-based, human; settings: Homo sapiens, canonical junction qPCR panel, Table 4; read-out: SMN2 IC50 (decrease in CJ mRNA levels)
Outline: as §1

[1] = HTT canonical junction mRNA, RT-qPCR, read-out: HTT CJ (decrease in CJ mRNA levels, IC50)
[2] = canonical junction qPCR panel, Table 4, read-out: HTT IC50 (decrease in CJ mRNA levels)

Structure (SMILES) | AC50 (HTT mRNA; RT-qPCR) [nM] | IC50 (HTT mRNA; [1]) [nM] | IC50 (HTT mRNA; [2]) [nM] | IC50 (SMN2 mRNA) [nM]
Cn1cc2cc(-c3ccc4nc(N5CC[C@H](N[C@H]6C[C@H](F)C6)C5)ccc4n3)c(O)c(F)c2n1 (single isomer, unassigned) [Compound 347] | < 100 | < 100 | < 100 | < 100
Cc1nc2cc(O)c(-c3ccc4nc(N5CC[C@@H](N[C@H]6C[C@H](F)C6)C5)ccc4n3)cc2o1 (single isomer, unassigned) [Compound 348] | 100 to 1000 | 100 to 1000 | 100 to 1000 | < 100
Cn1cc2cc(-c3ccc4nc(N5CC[C@@H](N[C@H]6C[C@H](F)C6)C5)ccc4n3)c(O)c(F)c2n1 (single isomer, unassigned) [Compound 349] | < 100 | < 100 | < 100 | < 100
Cc1nc2c(C)c(O)c(-c3ccc4nc(N5CC[C@H](N[C@H]6C[C@H](F)C6)C5)ccc4n3)cc2o1 (single isomer, unassigned) [Compound 351] | < 100 | < 100 | < 100 | < 100
Cc1nc2c(C)c(O)c(-c3ccc4nc(N5CC[C@@H](N[C@H]6C[C@H](F)C6)C5)ccc4n3)cc2o1 (single isomer, unassigned) [Compound 352] | < 100 | < 100 | < 100 | < 100
Cc1nc2c(F)c(O)c(-c3ccc4nc(N5CC[C@@H](NC6(C)CC6)C5)ccc4n3)cc2o1 (stereo in doubt) [Compound 326, 4-fluoro-2-methyl-6-{6-[(3 S)-3-[(1-methylcyclopropyl)amino]pyrrolidin-1-yl]-1,5-naphthyridin-2-yl}-1,3-benzoxazol-5-ol] | < 100 | < 100 | < 100 | < 100
Cc1nc2c(F)c(O)c(-c3ccc4nc(N5CCC(NC6(C)CC6)C5)ccc4n3)cc2o1 (stereo in doubt) [Compound 327, 4-fluoro-2-methyl-6-{6-[(3R)-3-[(1-methylcyclopropyl)amino]pyrrolidin-1-yl]-1,5-naphthyridin-2-yl}-1,3-benzoxazol-5-ol] | < 100 | < 100 | < 100 | < 100
Cc1nc2c(C)c(O)c(-c3ccc4nc(N5CC[C@H](NC(C)(C)C)C5)ccc4n3)cc2o1 [Compound 214] | < 100 | < 100 | < 100 | < 100
Cc1nc2c(C)c(O)c(-c3ccc4nc(N5CC[C@H](NC6CC6)C5)ccc4n3)cc2o1 [Compound 216] | < 100 | < 100 | < 100 | < 100
Cc1nc2c(C)c(O)c(-c3ccc4nc(N5CC[C@@H](NC6CC6)C5)ccc4n3)cc2o1 [Compound 217] | < 100 | < 100 | < 100 | < 100
Cn1cc2cc(-c3ccc4nc(N5CCC(NC6(C)CC6)C5)ccc4n3)c(O)cc2n1 (centres unmarked) [Compound 219] | < 100 | < 100 | < 100 | < 100
Cc1nc2cc(O)c(-c3ccc4nc(N5CC[C@@H](NC6CCC6)C5)ccc4n3)cc2o1 [Compound 229] | < 100 | < 100 | < 100 | < 100
Cc1nc2cc(O)c(-c3ccc4nc(N5CC[C@H](NC6CCC6)C5)ccc4n3)cc2o1 [Compound 230] | < 100 | < 100 | < 100 | < 100
Cc1nc2cc(O)c(-c3ccc4nc(N5CCC(NC(C)C)C5)ccc4n3)cc2o1 (centres unmarked) [Compound 231] | < 100 | < 100 | < 100 | < 100
Cc1nc2c(C)c(O)c(-c3ccc4nc(N5CCC(NC6CCC6)C5)ccc4n3)cc2o1 (centres unmarked) [Compound 235] | < 100 | < 100 | < 100 | < 100
Cc1nc2c(C)c(O)c(-c3ccc4nc(N5CC[C@@H](NC6CCC6)C5)ccc4n3)cc2o1 [Compound 236] | < 100 | < 100 | < 100 | < 100
Cc1nc2c(C)c(O)c(-c3ccc4nc(N5CC[C@H](NC6CCC6)C5)ccc4n3)cc2o1 [Compound 237] | < 100 | < 100 | < 100 | < 100
Cc1cc(-c2ccc3nc(N4CCC(NC(C)(C)C)C4)ccc3n2)nc2cn(C)nc12 (centres unmarked) [Compound 248] | 100 to 1000 | 1000 to 10000 | 1000 to 10000 | 100 to 1000
Cc1c(O)c(-c2ccc3nc(N4CC[C@@H](NC(C)(C)C)C4)ccc3n2)cc2cn(C)nc12 [Compound 249] | < 100 | < 100 | < 100 | < 100
Cc1c(O)c(-c2ccc3nc(N4CC[C@H](NC(C)(C)C)C4)ccc3n2)cc2cn(C)nc12 [Compound 250] | < 100 | < 100 | < 100 | < 100
COc1c(-c2ccc3nc(N4CCC(NC(C)(C)C)C4)ccc3n2)cc2c[nH]nc2c1C (centres unmarked) [Compound 251] | > 10000 | > 10000 | > 10000 | > 10000
Cc1cn2nc(-c3ccc4nc(N5CCC(NC6CC6)C5)ccc4n3)c(O)c2c(C)n1 (centres unmarked) [Compound 252] | 100 to 1000 | < 100 | < 100 | < 100
Cc1c(O)c(-c2ccc3nc(N4CCC(NCC5CC5)C4)ccc3n2)cc2cn(C)nc12 (centres unmarked) [Compound 284, 5-(6-{3-[(cyclopropylmethyl)amino]pyrrolidin-1-yl}-1,5-naphthyridin-2-yl)-2,7-dimethylindazol-6-ol] | < 100 | < 100 | < 100 | < 100
Cc1c(O)c(-c2ccc3nc(N4CCC(NC5CCC5)C4)ccc3n2)cc2cn(C)nc12 (centres unmarked) [Compound 288, 5-{6-[3-(cyclobutylamino)pyrrolidin-1-yl]-1,5-naphthyridin-2-yl}-2,7-dimethylindazol-6-ol] | < 100 | < 100 | < 100 | < 100
Cc1nc2c(F)c(O)c(-c3ccc4nc(N5CCC(NC6CCC6)C5)ccc4n3)cc2o1 (centres unmarked) [Compound 293, 6-{6-[3-(cyclobutylamino)pyrrolidin-1-yl]-1,5-naphthyridin-2-yl}-4-fluoro-2-methyl-1,3-benzoxazol-5-ol] | < 100 | < 100 | < 100 | < 100
Cn1cc2cc(-c3ccc4nc(N5CCC(NC67CC(C6)C7)C5)ccc4n3)c(O)cc2n1 (centres unmarked) [Compound 297, 5-[6-(3-{bicyclo[1.1.1]pentan-1-ylamino}pyrrolidin-1-yl)-1,5-naphthyridin-2-yl]-2-methylindazol-6-ol] | 1000 to 10000 | 1000 to 10000 | 1000 to 10000 | 100 to 1000
Cn1cc2nc(-c3ccc4nc(N5CCC(NC(C)(C)C)C5)ccc4n3)c(O)cc2n1 (centres unmarked) [Compound 298, 5-{6-[3-(tert-butylamino)pyrrolidin-1-yl]-1,5-naphthyridin-2-yl}-2-methylpyrazolo[4,3-b]pyridin-6-ol] | < 100 | < 100 | < 100 | < 100
Cn1cc2cc(-c3ccc4nc(N5CC[C@H](N[C@H]6C[C@@H](F)C6)C5)ccc4n3)c(O)cc2n1 [Compound 299, 2-methyl-5-{6-[(3S)-3-{[(1s,3s)-3-fluorocyclobutyl]amino}pyrrolidin-1-yl]-1,5-naphthyridin-2-yl}indazol-6-ol] | 100 to 1000 | < 100 | < 100 | < 100
Cc1c(O)c(-c2ccc3nc(N4CCC(NC5COC5)C4)ccc3n2)cc2cn(C)nc12 (centres unmarked) [Compound 302, 2,7-dimethyl-5-{6-[3-(oxetan-3-ylamino)pyrrolidin-1-yl]-1,5-naphthyridin-2-yl}Indazol-6-ol] | 100 to 1000 | 100 to 1000 | 100 to 1000 | < 100

Reference: patent US20250092065A1, “2-(INDAZOL-5-YL)-6-(PIPERIDIN-4-YL)-1,7-NAPHTHYRIDINE DERIVATIVES AND RELATED COMPOUNDS AS MODULATORS FOR SPLICING NUCLEIC ACIDS AND FOR THE TREATMENT OF PROLIFERATIVE DISEASES” (REMIX THERAPEUTICS INC., priority 2022, published 2025)
